Positions of bridges follow the written chain, without caps; N, C: chain ends. Non-standard residues stand in square brackets, D forms with d. Residues, ends and D or L forms follow the SMILES beside them. NMeW = CN[C@@H](Cc1c[nH]c2ccccc12)C(=O)O; 1Nal = N[C@@H](Cc1cccc2ccccc12)C(=O)O; d(αMeF) = C[C@@](N)(Cc1ccccc1)C(=O)O; NMeH = CN[C@@H](Cc1c[nH]cn1)C(=O)O; 3Pal = N[C@@H](Cc1cccnc1)C(=O)O; Cit = NC(=O)NCCC[C@H](N)C(=O)O; Nle = CCCC[C@H](N)C(=O)O; Aib = CC(C)(N)C(=O)O
Experiments:
Assay type in all cases: cell-based
human MC3R = biological target: T1, human MC3R (Homo sapiens, UniProt P41968); test: split-luciferase cAMP sensor assay, agonist mode (measurement window 1), hMC3R; settings: for Emax: % maximal activation, read-out: MC3R cAMP % max activation; for Emax / EC50: agonist mode; for EC50: HEK-293 cells stably expressing hMC3R, read-out: MC3R cAMP EC50; for MC4R selectivity vs MC3R: MC4R versus MC3R
T1 construct: expressed in transfected cells; host or cells: HEK-293 cells stably expressing the GScAMP22F split-luciferase cAMP sensor (parent reporter line from Promega); MC3R clone generated in-house, G418 selection
T1 sequence (P41968 whole entry): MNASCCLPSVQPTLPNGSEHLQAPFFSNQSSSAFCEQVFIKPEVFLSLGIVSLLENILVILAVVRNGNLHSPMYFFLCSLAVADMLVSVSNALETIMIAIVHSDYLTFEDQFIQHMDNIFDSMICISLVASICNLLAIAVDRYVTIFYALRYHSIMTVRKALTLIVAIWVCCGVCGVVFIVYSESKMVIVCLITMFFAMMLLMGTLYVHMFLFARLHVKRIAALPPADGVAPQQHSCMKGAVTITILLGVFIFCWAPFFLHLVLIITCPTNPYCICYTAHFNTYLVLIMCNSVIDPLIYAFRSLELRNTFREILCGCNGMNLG
Procedure, shortened: (§1)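 Live stable cell lines carrying receptor plus GloSensor cAMP22f split-luciferase, loaded with 4% D-luciferin in serum-free medium (~1% serum estimated during assay). Luminescence recorded during in-line peptide addition; direct agonist effect read in window 1, with 20 μM forskolin as normalization reference. EC50 from four-parameter sigmoid fit.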

human MC4R = biological target: T2, human MC4R (Homo sapiens, UniProt P32245); test: split-luciferase cAMP sensor assay, agonist mode (measurement window 1), hMC4R; settings: agonist mode; for Emax: % maximal activation, read-out: MC4R cAMP % max activation; for EC50: HEK-293 cells stably expressing hMC4R, read-out: MC4R cAMP EC50
T2 construct: host or cells: HEK-293 cells stably expressing the GScAMP22F split-luciferase cAMP sensor and hMC4R, G418 selection
T2 sequence (P32245 whole entry): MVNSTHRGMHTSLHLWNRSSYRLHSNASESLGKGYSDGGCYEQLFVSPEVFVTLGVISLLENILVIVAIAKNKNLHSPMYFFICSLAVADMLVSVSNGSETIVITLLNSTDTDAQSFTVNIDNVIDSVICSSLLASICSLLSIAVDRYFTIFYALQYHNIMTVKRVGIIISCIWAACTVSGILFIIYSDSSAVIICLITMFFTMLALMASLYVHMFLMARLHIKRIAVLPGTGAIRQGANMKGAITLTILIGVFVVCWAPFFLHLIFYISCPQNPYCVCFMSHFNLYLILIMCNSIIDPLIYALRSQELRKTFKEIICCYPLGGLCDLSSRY
Procedure, shortened: as §1

human MC1R = biological target: T3, human MC1R (Homo sapiens, UniProt Q01726); test: split-luciferase cAMP sensor assay, agonist mode, hMC1R; settings: MC4R versus MC1R
T3 construct: expressed in transfected cells; host or cells: HEK-293 cells stably expressing hMC1R and the GScAMP22F cAMP sensor
T3 sequence (Q01726 whole entry): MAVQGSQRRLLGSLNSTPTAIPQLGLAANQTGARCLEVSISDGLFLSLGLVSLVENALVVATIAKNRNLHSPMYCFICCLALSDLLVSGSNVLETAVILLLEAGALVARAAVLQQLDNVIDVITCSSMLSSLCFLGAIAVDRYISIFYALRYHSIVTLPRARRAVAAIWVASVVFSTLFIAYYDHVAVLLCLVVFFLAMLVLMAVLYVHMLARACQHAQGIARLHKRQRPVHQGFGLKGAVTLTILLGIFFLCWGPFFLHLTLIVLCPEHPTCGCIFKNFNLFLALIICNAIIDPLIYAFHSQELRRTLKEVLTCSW
Procedure, shortened: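 HEK-293 cells stably expressing hMC1R and the GScAMP22F split-luciferase cAMP sensor, preloaded 120 min at 37° C with D-luciferin in serum-free medium. Peptide responses were taken as peak luminescence over 2-13 min minus 2-min baseline, normalized to the α-MSH ECmax. EC50 was obtained from a four-parameter variable-slope fit.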

Row | Compound | Emax (human MC3R) [%] | EC50 (human MC3R) [nM] | MC4R selectivity vs MC3R (human MC3R) | Emax (human MC4R) [%] | EC50 (human MC4R) [nM] | MC4R selectivity vs MC1R (human MC1R)
1 | CC(=O)N[C@@H](CCCNC(=N)N)C(=O)N[C@H]1CSSC[C@@H](C(N)=O)NC(=O)[C@H](Cc2c[nH]c3ccccc23)NC(=O)[C@H](CCCNC(=N)N)NC(=O)[C@@H](Cc2ccccc2)NC(=O)[C@H](CCCNC(=N)N)NC(=O)[C@H](C)NC1=O [CTX-1267, Arg-cyclo(Cys-Ala-Arg-D-Phe-Arg-Trp-Cys)] (Ac-RCAR[dF]RWC-NH2; disulfide 2-8) | 40 | 12 | 4.07 | 96 | 3 | 0.5
2 | CCCC[C@H](NC(=O)[C@H](CCCNC(=N)N)NC(C)=O)C(=O)N[C@H]1CSSC[C@@H](C(N)=O)NC(=O)[C@H](Cc2c[nH]c3ccccc23)NC(=O)[C@H](CCCNC(=N)N)NC(=O)[C@H](Cc2cccc3ccccc23)NC(=O)[C@H](Cc2c[nH]cn2)NC1=O [CTX-1610, Arg-Nle-cyclo(Cys-His-Nal(1′)-Arg-Trp-Cys)] (Ac-R[Nle]CH[1Nal]RWC-NH2; disulfide 3-8) | 67 | – | 0.66 | 90 | – | 0.03
3 | CC(=O)N[C@@H](CCCNC(=N)N)C(=O)N[C@H]1CSSC[C@@H](C(N)=O)NC(=O)[C@H](Cc2c[nH]c3ccccc23)NC(=O)[C@H](CCCNC(N)=O)NC(=O)[C@@H](Cc2ccccc2)NC(=O)[C@H](CCCNC(=N)N)NC(=O)C(C)(C)NC1=O [CTX-1270, Arg-cyclo(Cys-Aib-Arg-D-Phe-Cit-Trp-Cys)] (Ac-RC[Aib]R[dF][Cit]WC-NH2; disulfide 2-8) | 14 | 52 | 1.88 | 98 | – | 2.49
4 | CC(=O)N[C@@H](CCCNC(=N)N)C(=O)N[C@H]1CSSC[C@@H](C(N)=O)NC(=O)[C@@H](Cc2c[nH]c3ccccc23)NC(=O)[C@H](CCCNC(=N)N)NC(=O)[C@@H](Cc2ccccc2)NC(=O)[C@H](CCCNC(=N)N)NC(=O)[C@@H](C)NC1=O [CTX-1263, Arg-cyclo(Cys-D-Ala-Arg-D-Phe-Arg-D-Trp-Cys)] (Ac-RC[dA]R[dF]R[dW]C-NH2; disulfide 2-8) | 69 | 11 | 1.62 | 93 | – | 1.73
5 | CCCC[C@H](NC(=O)[C@H](CCCNC(=N)N)NC(C)=O)C(=O)N[C@H]1CSSC[C@@H](C(N)=O)NC(=O)[C@H](Cc2c[nH]c3ccccc23)NC(=O)[C@H](CCCNC(=N)N)NC(=O)[C@H](Cc2ccccc2)NC(=O)[C@H](CCCNC(N)=O)NC1=O [CTX-1609, Arg-Nle-cyclo(Cys-Cit-Phe-Arg-Trp-Cys)] (Ac-R[Nle]C[Cit]FRWC-NH2; disulfide 3-8 (inferred)) | 65 | – | 4.72 | 96 | – | 4.15
6 | C[C@H]1NC(=O)CSC[C@@H](C(N)=O)NC(=O)[C@H](Cc2c[nH]c3ccccc23)N(C)C(=O)[C@H](CCCNC(=N)N)NC(=O)[C@@H](Cc2ccccc2)NC(=O)[C@H](Cc2c[nH]cn2)N(C)C1=O [CTX-1203, Thioether-cyclo(D-Ala-Nme-His-D-Phe-Arg-Nme-Trp-Cys)] ({CH2CO}-[dA][NMeH][dF]R[NMeW]C-NH2; thioether N-6) | 107 | – | 161 | 109 | 16 | 2.32
7 | CC(=O)N[C@H]1CSSC[C@@H](C(N)=O)NC(=O)[C@H](Cc2c[nH]c3ccccc23)NC(=O)[C@H](CCCNC(=N)N)NC(=O)[C@@H](Cc2ccccc2)NC(=O)[C@H](Cc2c[nH]cn2)NC(=O)C(C)(C)NC1=O [CTX-1631, cyclo(Cys-Aib-His-D-Phe-Arg-Trp-Cys)] | 100 | – | 6.91 | 107 | – | 4.09
8 | CC(=O)N[C@@H](CCCNC(=N)N)C(=O)N[C@H]1CSSC[C@@H](C(N)=O)NC(=O)[C@H](Cc2c[nH]c3ccccc23)NC(=O)[C@H](CCCNC(=N)N)NC(=O)[C@@](C)(Cc2ccccc2)NC(=O)[C@H](CCCNC(=N)N)NC(=O)[C@@H](C)NC1=O [CTX-1278] (Ac-RC[dA]R[d(αMeF)]RWC-NH2; disulfide 2-8 (inferred)) | 86 | – | 12 | 105 | – | 1.13
9 | CC1(C)NC(=O)CSC[C@@H](C(N)=O)NC(=O)[C@H](Cc2ccccc2)NC(=O)[C@H](CCCNC(=N)N)NC(=O)[C@@H](Cc2ccccc2)NC(=O)[C@H](CCCNC(N)=O)NC1=O [CTX-1652, Thioether-cyclo(Aib-Cit-D-Phe-Arg-Phe-Cys)] ({CH2CO}-[Aib][Cit][dF]RFC-NH2; thioether N-6) | – | > 10000 | Not active | – | > 10000 | Not active
10 | CCCC[C@H](NC(=O)[C@H](CCCNC(=N)N)NC(C)=O)C(=O)N[C@H]1CSSC[C@@H](C(N)=O)NC(=O)[C@H](Cc2ccccc2)NC(=O)[C@H](CCCNC(=N)N)NC(=O)[C@@H](Cc2ccccc2)NC(=O)[C@H](CCCNC(=N)N)NC1=O [CTX-1622, Arg-Nle-cyclo(Cys-Arg-D-Phe-Arg-Phe-Cys)] (Ac-R[Nle]CR[dF]RFC-NH2; disulfide 3-8 (inferred)) | 100 | 13 | 0.32 | 101 | – | 0.39
11 | CC1(C)NC(=O)CSC[C@@H](C(N)=O)NC(=O)[C@H](Cc2ccccc2)NC(=O)[C@H](CCCNC(=N)N)NC(=O)[C@@H](Cc2ccccc2)NC(=O)[C@H](CCCNC(=N)N)NC1=O [CTX-1651, Thioether-cyclo(Aib-Arg-D-Phe-Arg-Phe-Cys)] ({CH2CO}-[Aib]R[dF]RFC-NH2; thioether N-6) | – | > 10000 | >8 | 92 | – | 1.45
12 | C[C@H]1NC(=O)CSC[C@@H](C(N)=O)NC(=O)[C@H](Cc2ccccc2)NC(=O)[C@H](CCCNC(=N)N)NC(=O)[C@@H](Cc2ccccc2)NC(=O)[C@H](CCCNC(N)=O)NC1=O [CTX-1658, Thioether-cyclo(D-Ala-Cit-D-Phe-Arg-Phe-Cys)] ({CH2CO}-[dA][Cit][dF]RFC-NH2; thioether N-6) | – | > 10000 | Not active | – | > 10000 | Not active
13 | CC(=O)N[C@@H](CCCNC(=N)N)C(=O)N[C@H]1CSSC[C@@H](C(N)=O)NC(=O)[C@H](Cc2ccccc2)NC(=O)[C@H](CCCNC(=N)N)NC(=O)[C@@H](Cc2ccccc2)NC(=O)[C@H](CCCNC(=N)N)NC(=O)C(C)(C)NC1=O [CTX-1601, Arg-cyclo(Cys-Aib-Arg-D-Phe-Arg-Phe-Cys)] (Ac-RC[Aib]R[dF]RFC-NH2; disulfide 2-8) | 73 | – | 2.3 | 97 | – | 0.93
14 | CCCC[C@H](NC(=O)[C@H](CCCNC(=N)N)NC(C)=O)C(=O)N[C@H]1CSSC[C@@H](C(N)=O)NC(=O)[C@H](Cc2c[nH]c3ccccc23)NC(=O)[C@H](CCCNC(=N)N)NC(=O)[C@@H](Cc2ccccc2)NC(=O)[C@H](Cc2cccnc2)NC1=O [CTX-1620, Arg-Nle-cyclo(Cys-Pal(3′)-D-Phe-Arg-Trp-Cys)] (Ac-R[Nle]C[3Pal][dF]RWC-NH2; disulfide 3-8 (inferred)) | 39 | – | 12 | 91 | – | 47
15 | CC(=O)N[C@H]1CSSC[C@@H](C(N)=O)NC(=O)[C@H](Cc2ccccc2)NC(=O)[C@H](CCCNC(=N)N)NC(=O)[C@@H](Cc2ccccc2)NC(=O)[C@H](Cc2c[nH]cn2)NC(=O)C(C)(C)NC1=O [CTX-1634, cyclo(Cys-Aib-His-D-Phe-Arg-Phe-Cys)] (Ac-C[Aib]H[dF]RFC-NH2; disulfide 1-7 (inferred)) | 94 | – | 6.68 | 107 | – | 4.02
16 | C[C@H]1NC(=O)CSC[C@@H](C(N)=O)NC(=O)[C@H](Cc2ccccc2)NC(=O)[C@H](CCCNC(=N)N)NC(=O)[C@@H](Cc2ccccc2)NC(=O)[C@H](Cc2c[nH]cn2)NC1=O [CTX-1656, Thioether-cyclo(D-Ala-His-D-Phe-Arg-Phe-Cys)] ({CH2CO}-[dA]H[dF]RFC-NH2; thioether N-6) | 86 | – | 1.64 | 98 | 1400 | 1
17 | C[C@H]1NC(=O)CSC[C@@H](C(N)=O)NC(=O)[C@H](Cc2c[nH]c3ccccc23)NC(=O)[C@H](CCCNC(=N)N)NC(=O)[C@@H](Cc2ccccc2)NC(=O)[C@H](CCCNC(=N)N)NC1=O [CTX-1642, Thioether-cyclo(D-Ala-Arg-D-Phe-Arg-Trp-Cys)] ({CH2CO}-[dA]R[dF]RWC-NH2; thioether N-6) | 90 | – | 29 | 107 | 2.9 | 13
